# Test system: rabbit skeletal myofibrils (fast skeletal myofibrils)
# Test: Activation of fast skeletal myofibrils (PUMA assay, PK/LDH-coupled ATPase at pCa25)
# Type: biochemical
# Details: AC1.4 determined according to the procedure of Example 39; reported as class symbols
# How it was run: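 Detergent-washed rabbit psoas myofibrils (~90% fast fibres, calcium-regulated) assayed at calcium giving 25% of maximal ATPase rate (pCa25). ADP turnover coupled via pyruvate kinase/lactate dehydrogenase to NADH oxidation, read at 340 nm. Buffer 12 mM PIPES, 2 mM MgCl2, 1 mM DTT, pH 6.8; AC1.4 values derived.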
row,Mean AC1.4,Structure (SMILES)
1,B (B=1-10 uM),CC(C)(CNc1ccc(-c2cccc(C(=O)NCCNC(=O)c3cccc(-c4ccc(NCC(C)(C)c5ccc(F)cc5)nn4)c3)c2)nn1)c1ccc(F)cc1 [[3-(6-{[2-(4-fluorophenyl)-2-methylpropyl]amino}pyridazin-3-yl)phenyl]-N-(2-{[3-(6-{[2-(4-fluorophenyl)-2-methylpropyl]amino}pyridazin-3-yl)phenyl]carbonylamino}eth-yl)carboxamide]
2,C (C=10-20 uM),CC(C)(CNc1ccc(-c2ccc(C#N)nc2)nn1)c1ccc(F)cc1 [5-(6-{[2-(4-fluorophenyl)-2-methylpropyl]amino}pyridazin-3-yl)pyridine-2-carbonitrile]
3,D (D=>20 uM),NC(=O)c1cccc(-c2ccc(NCC3(c4cc(C(N)=O)ccn4)CCC3)nn2)c1
4,B (B=1-10 uM),CNC(=O)c1cc(-c2ccc(NCC3(c4ncccc4F)CCC3)nn2)ccc1F
5,A (A=<1 uM),CC(C)(CNc1ccc(-c2ccc3[nH]c(O)nc3c2)nn1)c1ncccc1F [5-(6-{[2-(3-fluoro(2-pyridyl))-2-methylpropyl]amino}pyridazin-3-yl)benzimidazol-2-ol]
6,B (B=1-10 uM),CC(C)(CNc1ccc(-c2ccc(C(N)=O)cn2)nn1)c1ccc(F)cc1 [6-(6-{[2-(4-fluorophenyl)-2-methylpropyl]amino}pyridazin-3-yl)pyridine-3-carboxamide]
7,D (D=>20 uM),CC(C)(CNc1ccc(-c2cccc(C(N)=O)c2)nn1)OCc1ccccc1
8,B (B=1-10 uM),CCC(CNc1ccc(-c2cccc(C(N)=O)c2)nn1)c1ccccc1F (stereo not drawn) [3-(6-{[2-(2-fluoro-phenyl)butyl]amino}pyridazin-3-yl)benzamide]
9,B (B=1-10 uM),COc1cccnc1C1(CNc2ccc(-c3cc(C(N)=O)ccc3F)nn2)CCC1
10,D (D=>20 uM),CC(C)(CNc1ccc(-c2ccc3[nH]nc(C#N)c3c2)nn1)c1ccc(F)cc1 [5-(6-{[2-(4-fluorophenyl)-2-methylpropyl]amino}pyridazin-3-yl)-1H-indazole-3-carbonitrile]
11,A (A=<1 uM),Nc1n[nH]c2ccc(-c3ccc(NCC4(c5ccc(F)cc5)CCC4)nn3)cc12 [[6-(3-amino(1H-indazol-5-yl))pyridazin-3-yl]{[(4-fluorophenyl)cyclobutyl]meth-yl}amine]
12,B (B=1-10 uM),O=C1Cc2c(cccc2-c2ccc(NCC3(c4ncccc4F)CCC3)nn2)N1
13,B (B=1-10 uM),N=C(N)Nc1ccc(-c2ccc(NCC3(c4ncccc4F)CCC3)nn2)cc1
14,D (D=>20 uM),CC(C)(CNc1ccc(-c2ccc(C(=O)O)c(F)c2)nn1)c1ccc(F)cc1 [2-fluoro-4-(6-{[2-(4-fluorophenyl)-2-methylpropyl]amino}pyridazin-3-yl)benzoic acid]

# Same assay, conditions: median AC1.4 class, procedure of Example 39
row,Mean AC1.4,Structure (SMILES)
1,A (A=<1 uM),"CC(OC(=O)NC(C)(C)C(=O)NCc1cnc(-c2ccc(NCC3(c4ncccc4F)CCC3)nn2)s1)OC(=O)C(C)C (stereo not drawn) [(N-{1-[N-({2-[6-({[(3-fluoro(2-pyridyl))cyclobutyl]methyl}ami-no)pyridazin-3-yl](1,3-thiazol-5-yl)}methyl)carbamoyl]-isopropyl}carbamoyloxy)ethyl 2-methylpropanoate]"
2,C (C=10-20 uM),"O=C(c1cnc(-c2ccc(NCC3(c4ncccc4F)CCC3)nn2)s1)N1CCC(O)C1 (stereo not drawn) [2-[6-({[(3-fluoro(2-pyridyl))cyclobutyl]methyl}ami-no)pyridazin-3-yl](1,3-thiazol-5-yl) 3-hydroxypyrrolidinyl ketone]"
3,B (B=1-10 uM),"CC(C)(C)OC(=O)N1CC(F)(F)CC1C(=O)NCc1cnc(-c2ccc(NCC3(c4ncccc4F)CCC3)nn2)s1 [tert-butyl (2S)-4,4-difluoro-2-[N-({2-[6-({[(3-fluoro(2-pyridyl))cyclobutyl]methyl}ami-no)pyridazin-3-yl](1,3-thiazol-5-yl)}methyl)carbamoyl]pyrrolidine-carboxylate]"
4,A (A=<1 uM),"NCC(=O)NCc1cnc(-c2ccc(NCC3(c4ncccc4F)CCC3)nn2)s1 [2-amino-N-({2-[6-({[(3-fluoro(2-pyridyl))cyclobutyl]methyl}ami-no)pyridazin-3-yl](1,3-thiazol-5-yl)}methyl)acetamide]"
5,B (B=1-10 uM),Fc1cc2[nH]ncc2cc1-c1ccc(NC2(c3ncccc3F)CCC2)nn1 [[6-(6-fluoro(1H-indazol-5-yl))pyridazin-3-yl][(3-fluoro(2-pyridyl))cyclobutyl]amine]
6,B (B=1-10 uM),"Nc1ccc2nc(-c3ccc(NCC4(c5ncccc5F)CCC4)nn3)sc2n1 [[6-(5-amino(1,3-thiazolino[5,4-b]pyridin-2-yl))pyridazin-3-yl]{[(3-fluoro(2-pyridyl))cyclobutyl]methyl}amine]"
7,A (A=<1 uM),"CC(C)(O)C(=O)NCc1cnc(-c2ccc(NCC3(c4ncccc4F)CCC3)nn2)s1 [N-({2-[6-({[(3-fluoro(2-pyridyl))cyclobutyl]methyl}ami-no)pyridazin-3-yl](1,3-thiazol-5-yl)}methyl)-2-hydroxy-2-methylpropanamide]"
8,B (B=1-10 uM),Fc1cccnc1C1(Nc2ccc(-c3ccc4cn[nH]c4c3)nn2)CCC1 [(6-(1H-indazol-6-yl)pyridazin-3-yl)[(3-fluoro(2-pyridyl))cyclobutyl]amine]
9,A (A=<1 uM),"O=C(NCC(O)CO)c1cnc(-c2ccc(NCC3(c4ncccc4F)CCC3)nn2)s1 (stereo not drawn) [N-(2,3-dihydroxypropyl){2-[6-({[(3-fluoro(2-pyridyl))cyclobutyl]methyl}ami-no)pyridazin-3-yl](1,3-thiazol-5-yl)}carboxamide]"

# Same assay, conditions: median AC1.4 reported as class; procedure of Example 39
row,Mean AC1.4,Structure (SMILES)
1,A (A=<1 uM),"C[C@H](N)C(=O)N[C@@H](C)C(=O)OCC(=O)NCc1cnc(-c2ccc(NCC3(c4ncccc4F)CCC3)nn2)s1 [[N-({2-[6-({[(3-fluoro-2-pyridyl)cyclobutyl]methyl}ami-no)pyridazin-3-yl]-1,3-thiazol-5-yl}methyl)carbamoyl]methyl (2S)-2-((2S)-2-aminopropanoylamino)propanoate]"
2,D (D=>20 uM),"CN(C)C(=O)c1ccc(NCC2(c3ncccc3F)CCC2)nn1 [[6-({[(3-fluoro(2-pyridyl))cyclobutyl]methyl}ami-no)pyridazin-3-yl]-N,N-dimethylcarboxamide]"
3,A (A=<1 uM),CC(C)(CNc1ccc(-c2cn3c(C(N)=O)csc3n2)nn1)c1ncccc1Cl
4,B (B=1-10 uM),COc1ccc(-c2ccc(NC[C@]3(c4ncccc4F)C[C@H](F)C3)nn2)cc1C(N)=O [5-[6-({[3-fluoro-1-(3-fluoro(2-pyridyl))cyclobutyl]methyl}ami-no)pyridazin-3-yl]-2-methoxybenzamide]
5,D (D=>20 uM),"O=C(NCc1nccs1)c1ccc(NCC2(c3ncccc3F)CCC2)nn1 [[6-({[(3-fluoro(2-pyridyl))cyclobutyl]methyl}ami-no)pyridazin-3-yl]-N-(1,3-thiazol-2-ylmethyl)carboxamide]"
6,B (B=1-10 uM),N#Cc1cccc(-c2ccc(NC[C@]3(c4ncccc4F)C[C@H](F)C3)nn2)c1O [3-[6-({[3-fluoro-1-(3-fluoro(2-pyridyl))cyclobutyl]methyl}ami-no)pyridazin-3-yl]-2-hydroxybenzenecarbonitrile]
7,B (B=1-10 uM),"CNC(=O)Cc1cnc(-c2ccc(NCC3(c4ncccc4F)CCC3)nn2)s1 [2-{2-[6-({[(3-fluoro(2-pyridyl))cyclobutyl]methyl}ami-no)pyridazin-3-yl](1,3-thiazol-5-yl)}-N-methylacetamide]"

# Source: patent US10076519B2 (CYTOKINETICS, INC., priority 2010, dated 2018)
